Tests used:
[1] = system: alcohol-dependent male Wistar rats; assay: Alcohol deprivation model of relapse drinking in alcohol-dependent rats; format: in vivo, rat; conditions: for Relapse drinking (alcohol intake after deprivation): FIG. 17
Procedure: This model is thoroughly described in a paper by (Spanagel and Holter, 1999). The model consists of a conditioning phase where individually housed male Wistar rats are allowed ad libitum access to food and 0, 5, 10 and 20% alcohol solutions in a four-bottle choice paradigm. The rats are weighed every 3rd and 4th day and food and fluid consumption is measured. The positions of bottles are changed once a week and after two months of continuous alcohol access, rats are deprived of alcohol for two weeks. After the deprivation phase, all alcohol solutions are presented again for 5 weeks and the procedure is repeated for ˜1 year. At this point an alcohol deprivation phase is instituted. Pre-deprivation (baseline) drinking is recorded for 3-4 days and then all alcohol is taken from the animals and they are only given water to drink for two weeks. Following alcohol deprivation, alcohol intake (total grams of ethanol/kg body weight) and water intake (ml/kg body weight) are measured daily. The alcohol preference ratio is calculated as (ethanol consumption [g/kg])/(water consumption [ml/kg]).
For this experiment, animals were divided into groups of 6-8 rats such that the mean baseline total alcohol intake was approximately the same (˜2.8 g/kg/day) across all groups. Baseline drinking was monitored followed by 14 days of alcohol deprivation. Each animal then received i.p. injections of DCUK-OEt twice daily at 12 hour intervals starting at 7 PM prior to the reintroduction of ethanol for a total of 3 (20 mg/kg) or 5 injections (75 mg/kg). Acamprosate, an already marketed agent for reducing relapse, was used as a positive control and four doses of 50 mg/kg or 200 mg/kg were injected over a two-day period. Alcohol bottles were re-introduced after the first (acamprosate) or second (DCUK-OEt) injection.

cannabinoid CB1 receptor = biological target: T1, cannabinoid CB1 receptor (Homo sapiens, UniProt P21554); assay: cAMP accumulation, HeLa cells transfected with CB1 receptor, D1 receptor and AC7; format: cell-based; conditions: for Effect on cAMP accumulation in the presence of dopamine: CB1 receptor, D1, AC7, DCUK-OEt 10 μM, ACEA 10 μM, FIG. 1
T1 construct: expressed in transfected cells; host or cells: HeLa (ATCC), calcium phosphate transient transfection

[2] = system: rats treated with cisplatin; assay: Reversal of cisplatin-induced neuropathic pain (von Frey mechanical pain threshold); format: in vivo, rat; conditions: cisplatin i.p. 7 mg/kg total, day 14; 30 mg/kg oral (equimolar to DCUKA and BCUKA); 1 and 2 hours; FIG. 6
[3] = biological target: T2, GABA-A receptors (α1, β2, γ2s subunits) (UniProt P18508+P47870+P62813); assay: Two-electrode voltage clamp, GABA-A receptors expressed in Xenopus oocytes; format: cell-based, rat α1 and γ2s, human β2; conditions: for Efficacy among five DCUK derivatives: potentiation of GABA response, FIG. 4C
T2 construct: expressed in transfected cells; host or cells: Xenopus laevis oocytes injected with capped cRNAs (α1:β2:γ2s 2:2:20 ng)
Procedure: Xenopus laevis frogs were obtained from Nasco (Fort Atkinson, Wis., USA). The complementary DNAs encoding the GABAA subunits rat α1 and γ2s and human β2 were provided by Dr. M. H. Akabas and Dr. Paul Whiting, respectively. The in vitro transcription of α1, β2, and γ2s subunits was performed using mMessage mMachine® (Life Technologies, Grand Island, N.Y.). After isolation of Xenopus laevis oocytes, they were injected with capped complementary RNAs encoding α1, β2, and γ2s subunits in a ratio 2:2:20 ng. The injected oocytes were incubated at 15° C. in sterilized Barth's solution [MBS; composition: 88 mM NaCl, 1 mM KCl, 10 mM HEPES, 0.82 mM MgSO4, 2.4 mM NaHCO3, 0.91 mM CaCl2), and 0.33 mM Ca(NO3)2, pH 7.5] for 3-5 days before recording. All surgery was performed according to an approved institutional protocol. The responses of GABAARs expressed in oocytes were studied through two-electrode voltage clamp (Oocyte Clamp OC-725C, Warner Instruments, Hamden, Conn.), recording through a POWERLAB 4/30 system (ADInstruments, Colorado Springs, Colo.). The oocyte was placed in a chamber perfused with MBS, and voltage-clamped at −70 mV.

[4] = system: rats treated with Complete Freund's Adjuvant; assay: Combination with morphine, CFA-induced thermal hyperalgesia (radiant heat paw withdrawal test); format: in vivo, rat; conditions: thermal hyperalgesia after CFA
Procedure: Thermal Hypersensitivity Test (Radiant Heat Paw Withdrawal Test). Rats were placed in clear plastic chambers on a glass surface and were habituated for 15 minutes before testing. Thermal sensitivity was measured by using paw withdrawal latency to a radiant heat stimulus. A radiant heat source (i.e., infrared) was activated with a timer and focused onto the plantar surface of the left hind paw. A motion detector that halted both lamp and timer when the paw was withdrawn determined paw withdrawal latency. The latencies were measured before and after drug or vehicle administration. A maximum cutoff of 33 seconds was used to prevent tissue damage.

[5] = biological target: GABA site, GABA-A Receptor; assay: PDSP radioligand displacement, [^3H]Muscimol; parameters: species or system rat; conditions: read-out: Binding constant Ki, GABA site, GABA-A Receptor
ethanol dependent rats = assay: Operant responding for alcohol in ethanol vapor-exposed dependent rats; format: in vivo, rat; conditions: FIG. 18
Source text: This example illustrates that ethanol dependent rats are motivated to work for ethanol reward during a period of forced abstinence and that DCUK-OEt reduces responding for the alcohol reward.
The methods used in this study are extensively described in (Vendruscolo et al., 2012). The rats were first trained to self-administer ethanol in an operant chamber. The rats were given free-choice access to alcohol (10% w/v) and water for 1 day in their home cages to habituate them to the taste of alcohol. The rats were then subjected to an overnight session in the operant chambers with access to one lever that delivered water (FR1). Food was available ad libitum during this training. After 1 day off, the rats were subjected to a 2 hour session (FR1) for 1 day and a 1 hour session (FR1) the next day, with one lever delivering alcohol. All of the subsequent sessions lasted 30 minutes, and two levers were available (left lever: water; right lever: alcohol). Once trained, the rats were made dependent by chronic, intermittent exposure to alcohol vapors (Gilpin et al., 2008). They underwent cycles of 14 hours of ethanol exposure (blood alcohol levels during vapor exposure ranged between 150 and 250 mg %) and 10 hours in the absence of ethanol vapor, during which behavioral testing for acute withdrawal occurred (i.e., 6-8 hours after vapor was turned off, when brain and blood alcohol levels were negligible). Nondependent rats were those not exposed to alcohol vapor. Pharmacological testing occurred after at least 2 months of vapor exposure, when full dependence was observed. DCUKA-OEt was administered i.p. at the doses specified in FIG. 18, sixty minutes prior to placing the animal in the operant chamber. The vehicle for DCUK-OEt was injected in certain animals as a control.

[6] = system: rats treated with Complete Freund's Adjuvant; assay: Naltrindole reversal of the effect of DCUKA on CFA-induced neuropathic pain; format: in vivo, rat
Procedure: Rats were tested for baseline mechanical pain threshold (von Frey test) and given an intraplantar injection of Complete Freunds Adjuvant (CFA) in the left hind paw.

delta opiate receptor [7] = biological target: T3, delta opiate receptor (Homo sapiens, UniProt P41143); assay: cAMP accumulation, HeLa cells transfected with D1 receptor, DOR and AC5; format: cell-based; parameters: expressed in transfected cells; conditions: not shown
delta opiate receptor [8] = biological target: T3, delta opiate receptor; assay: cAMP accumulation, HEK293 cells transfected with DA receptor, delta opiate receptor and AC7; format: cell-based; parameters: expressed in transfected cells; host or cells: HEK293 (ATCC), calcium phosphate transient transfection; conditions: naltrindole 10 μM
[9] = system: rats treated with streptozotocin; assay: Combination with aspirin, STZ-induced neuropathic pain (von Frey); format: in vivo, rat; conditions: aspirin 25 mg/kg, 60 min before test; FIG. 16
Procedure: After administration of streptozotocin (STZ) as described in Example 5, rats were tested for allodynia using a von Frey apparatus. Sixty minutes prior to testing, rats were divided into four groups. Group 1 received vehicle; group 2 received DCUKA; group 3 received aspirin; and group 4 received a combination of DCUKA and aspirin.

[10] = system: rats treated with Complete Freund's Adjuvant; assay: Combination with morphine, CFA-induced pain, mechanical pain threshold; format: in vivo, rat; conditions: FIG. 15 Panel A

T2 sequence (P62813 28-455): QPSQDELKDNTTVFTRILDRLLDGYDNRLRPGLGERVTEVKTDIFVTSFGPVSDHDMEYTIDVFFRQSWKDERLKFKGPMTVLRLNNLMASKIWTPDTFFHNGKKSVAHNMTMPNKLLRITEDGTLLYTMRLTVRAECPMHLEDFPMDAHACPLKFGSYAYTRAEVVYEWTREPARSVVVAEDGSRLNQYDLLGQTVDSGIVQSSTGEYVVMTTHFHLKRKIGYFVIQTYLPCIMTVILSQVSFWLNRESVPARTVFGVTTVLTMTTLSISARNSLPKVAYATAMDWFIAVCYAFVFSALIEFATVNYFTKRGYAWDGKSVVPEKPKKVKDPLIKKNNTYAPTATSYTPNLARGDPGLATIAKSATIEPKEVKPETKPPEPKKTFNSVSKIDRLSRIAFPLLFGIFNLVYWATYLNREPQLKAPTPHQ
T2 sequence (P47870 26-474 isoform P47870-1 limits assumed): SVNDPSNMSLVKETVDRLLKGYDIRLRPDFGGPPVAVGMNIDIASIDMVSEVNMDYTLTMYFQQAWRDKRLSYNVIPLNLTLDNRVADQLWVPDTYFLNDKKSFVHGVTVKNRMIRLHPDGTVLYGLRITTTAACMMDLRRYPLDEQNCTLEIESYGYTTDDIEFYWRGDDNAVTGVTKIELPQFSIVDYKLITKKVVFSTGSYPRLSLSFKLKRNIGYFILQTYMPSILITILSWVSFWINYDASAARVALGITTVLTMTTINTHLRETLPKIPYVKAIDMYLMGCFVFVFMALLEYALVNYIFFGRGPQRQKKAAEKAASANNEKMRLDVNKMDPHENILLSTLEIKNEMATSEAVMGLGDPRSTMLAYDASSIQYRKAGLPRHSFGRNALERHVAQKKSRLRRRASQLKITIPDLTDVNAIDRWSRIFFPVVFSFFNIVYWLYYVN
T2 sequence (P18508 39-466): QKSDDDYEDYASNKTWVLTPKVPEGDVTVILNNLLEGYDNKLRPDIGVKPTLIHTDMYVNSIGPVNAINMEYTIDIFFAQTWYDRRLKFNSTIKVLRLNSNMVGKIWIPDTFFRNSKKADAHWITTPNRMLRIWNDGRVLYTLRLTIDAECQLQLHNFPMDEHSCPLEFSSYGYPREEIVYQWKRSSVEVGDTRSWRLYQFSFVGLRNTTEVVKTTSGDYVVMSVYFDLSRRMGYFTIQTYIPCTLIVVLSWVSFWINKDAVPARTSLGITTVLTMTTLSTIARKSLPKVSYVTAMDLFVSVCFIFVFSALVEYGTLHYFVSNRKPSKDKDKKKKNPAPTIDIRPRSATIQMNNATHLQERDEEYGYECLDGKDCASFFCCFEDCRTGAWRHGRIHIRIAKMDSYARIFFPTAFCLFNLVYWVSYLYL
T1 sequence (P21554 whole entry): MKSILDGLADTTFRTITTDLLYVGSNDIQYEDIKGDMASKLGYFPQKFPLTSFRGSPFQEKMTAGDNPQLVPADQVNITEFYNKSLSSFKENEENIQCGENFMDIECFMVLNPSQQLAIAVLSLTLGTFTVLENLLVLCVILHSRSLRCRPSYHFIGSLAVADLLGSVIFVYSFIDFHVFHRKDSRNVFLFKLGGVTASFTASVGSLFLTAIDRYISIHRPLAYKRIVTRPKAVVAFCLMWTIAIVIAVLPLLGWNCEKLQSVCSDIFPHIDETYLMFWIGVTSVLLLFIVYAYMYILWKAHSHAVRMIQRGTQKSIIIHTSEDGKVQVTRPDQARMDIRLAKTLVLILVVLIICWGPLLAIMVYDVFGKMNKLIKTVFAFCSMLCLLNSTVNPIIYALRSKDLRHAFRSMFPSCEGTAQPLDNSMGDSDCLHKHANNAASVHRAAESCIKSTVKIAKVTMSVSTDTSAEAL
T3 sequence (P41143 whole entry): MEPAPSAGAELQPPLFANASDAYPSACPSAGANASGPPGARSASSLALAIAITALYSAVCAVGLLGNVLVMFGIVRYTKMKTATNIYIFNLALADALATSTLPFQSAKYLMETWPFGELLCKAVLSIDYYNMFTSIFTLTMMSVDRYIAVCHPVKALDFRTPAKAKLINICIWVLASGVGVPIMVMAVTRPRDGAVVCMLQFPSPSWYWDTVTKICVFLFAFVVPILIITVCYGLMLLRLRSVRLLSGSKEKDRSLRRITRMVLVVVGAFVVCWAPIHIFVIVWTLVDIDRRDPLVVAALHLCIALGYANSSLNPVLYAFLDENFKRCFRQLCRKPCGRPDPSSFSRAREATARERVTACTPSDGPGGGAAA

In the case of `CC(=O)NCCCS(=O)(=O)O` [acamprosate, reference compound], the “Relapse drinking (alcohol intake after deprivation)” value (from here on “Relapse drinking”) ([1]; acamprosate 50 mg/kg, four doses over two days, positive control) is reported as “transient, but significant, reduction in relapse drinking”.
With `CCCCC/C=C\C/C=C\C/C=C\C/C=C\CCCC(=O)NCCCl` [ACEA, reference compound] the “Effect on cAMP accumulation in the presence of dopamine” value (cannabinoid CB1 receptor) was “increased the accumulation of cAMP”.
In the case of `NCC1(CC(=O)O)CCCCC1` [Gabapentin, gabapentin, reference compound], the “Mechanical pain threshold, ratio to baseline” value [2] is reported as “did not significantly reverse”.
With `CCOC(=O)c1cc(NC(=O)N(c2ccccc2)c2ccccc2)c2c(Cl)cc(Cl)cc2n1` [DCUK-OEt] the “Relapse drinking” value ([1]; 20 mg/kg i.p. twice daily, 3 injections) was “transient, but significant, reduction in relapse drinking”, the Water consumption ([1]; 75 mg/kg DCUK-OEt, data not shown) was “increased consumption of water” and the “Relapse drinking” value ([1]; 75 mg/kg i.p. twice daily, 5 injections) was “almost complete abolition of alcohol intake”. The “Character of action at the GABA-A receptor” value ([3]; FIG. 4A) was “positive allosteric modulators (PAM)”, the GABA-induced chloride currents ([3]; co-applied with EC10 GABA, FIG. 4A) was “significantly enhanced GABA-induced currents” and the “Efficacy among five DCUK derivatives” value [3] was “most efficacious”. For the same compound, the “Chloride currents, compound alone” value ([3]; without GABA, FIG. 4A) was “no effect on chloride currents by themselves”, the “Character of action at the CB1 cannabinoid receptor” value (cannabinoid CB1 receptor; AC7, alone and together with ACEA) was “weak partial agonist” and the “Effect on cAMP accumulation in the presence of dopamine” value (cannabinoid CB1 receptor) was “significant increase in cAMP accumulation”. For the same compound, the Antihyperalgesic response ([4]; 6.4 mg of DCUK-OEt combined with 0.2 mg/kg morphine) was 40%, the Ki [5] was 1.7 ± 0.3 µM and the Alcohol self-administration (ethanol dependent rats; 20 mg/kg i.p., 60 min before session, ethanol vapor-exposed rats) was “brought the ethanol vapor exposed rats down to the same level of self-administration as non-ethanol pretreated control rats”. For the same compound, the “Lever pressing for ethanol” value (ethanol dependent rats; 35 and 50 mg/kg i.p., alcohol-dependent rats) was “reduced lever pressing for ethanol to even lower levels” and the “Lever pressing for water” value (ethanol dependent rats; all doses tested, alcohol dependent rats) was “No effect”.
In the case of `Oc1ccc2c3c1O[C@H]1c4[nH]c5ccccc5c4C[C@@]4(O)[C@@H](C2)N(CC2CC2)CC[C@]314` [Naltrindole, reference compound], the “Effect of intraplantar naltrindole on the DCUKA effect” value ([6]; Naltrindole 10 μg per paw s.c. 45 min after DCUKA 50 mg/kg oral, tested 15 min later) is reported as “reversed the anti-allodynic effect of DCUKA”, the “Effect of naltrindole alone on pain threshold” value ([6]; Naltrindole 10 μg per paw with vehicle) is reported as “no effect on its own” and the “Effect of DOR antagonist on the DCUKA inhibition of cAMP accumulation” value (delta opiate receptor [7]) is reported as “reversed”. For the same compound, the “Effect of DOR antagonist on the BCUKA-induced cAMP increase” value (delta opiate receptor [8]) was “reversed”.
`CC(=O)Oc1ccccc1C(=O)O` [aspirin, reference compound] was tested, and the “Effect on allodynia, alone” value [9] was “do not have any significant effect on allodynia”.
For `CCCC(=O)c1cc(NC(=O)N(c2ccccc2)c2ccccc2)c2c(Cl)cc(Cl)cc2n1` [DCUK-butanone, 3-(2-Butyryl-5,7-dichloroquinolin-4-yl)-1,1-diphenylurea], the “Efficacy among five DCUK derivatives” value [3] was “most efficacious”.
`CN1CC[C@]23c4c5ccc(O)c4O[C@H]2[C@@H](O)C=C[C@H]3[C@H]1C5` [morphine, reference compound] was tested, and the “Analgesia, each agent alone at the dose used for the combination” value [10] was “ineffective in producing analgesia” and the Antihyperalgesic response ([4]; morphine alone 0.2 mg/kg) was ~20%.

Reference: patent publication US10435371B2, “Multifunctional aminoquinoline therapeutic agent” (LOHOCLA RESEARCH CORPORATION, priority 2014, dated 2019)
